Where a name gives a salt, the structure may show the parent alone. Read-outs that look alike come from different tables or passages of the source.
Assays:
rat hepatocytes [1] = test: EMS-induced cytotoxicity (LDH leakage/cell death) in rat hepatocyte suspensions; settings: for inhibition at 25 µM: Rattus norvegicus, Hepatocyte; for inhibition at 25 µM / Percent Cytoprotection: 5 h; for Cell Death: 5 Hrs, alpha-TS 25, methyl ester 50, cholesteryl succinate 100, monomethyl/dimethyl succinate 250 μM
Protocol: To determine if alpha-TS is a cytoprotective agent under physiological conditions, liver cells were incubated with Waymouth's medium containing approximately 1 mM extracellular Ca^2+ in the presence and absence of alpha-TS.
(§1) At each time-point, rapid separation of viable from non-viable hepatocytes and medium was accomplished by the dibutyl phthalate centrifugation method. Cell viability was monitored hourly by measuring LDH leakage with a Cobas Analyzer and intracellular [K^+ ]with a flame photometer. LDH was routinely measured in the medium while intracellular K^+ was measured in the 10% perchloric acid lysate of viable cells. Lipid peroxidation was determined by measuring TBA reactants in the medium. […] The samples were diluted with 0.3 ml 1% ascorbate in 0.1 M SDS, 0.4 ml ethanol, sonicated and extracted once with 0.8 ml hexane. Next, the hexane extract was evaporated to dryness with N2, the residue dissolved in 2.5% ascorbate in methanol (1 ml) and analyzed (100 μl) by high-performance liquid chromatograph (HPLC). […] The mobile phase, 95% MeOH was run isocratically and the HPLC retention times for delta and alpha-tocopherol were approximately eleven and sixteen minutes, respectively. […] Following the addition of 0.2 ml 4 M HC1, the neutralized KOH-MeOH extracted with 0.8 ml hexane. […] A standard curve for each tocopherol congener was run with every assay. […] Only viable cells were monitored in the laboratory procedures.
To determine the relative cytoprotective potency of various tocopherol derivatives, the effect of varying doses of a tocopherol analog on the protection against EMS-induced toxicity was examined in vitro on rat hepatocyte suspensions. Specifically, the following ionizable tocopherol congeners were tested: alpha-TS, alpha tocopheryl glutarate (alpha-TG), and alpha tocopheryl phosphate (alpha-TP). […] 0.1 nmoles is the lower detection limit.
In vitro experiments were conducted with a variety of different tocopherol and succinate analogs to determine which were protective against EMS induced toxicity. After five hours of incubation with 50 mM EMS and 25μM of a tocopherol or succinate analog, cytoprotection was determined by comparing the percentage of LDH leakage from control hepatocytes (vehicle only, assumed 100% protection) with the EMS only treated cells (assumed 0% protection).
An in vitro experiment with rat hepatocyte suspensions was performed to determine the effect of esterase inhibitors on alpha-TS.
(§2) Rat hepatocyte suspensions were subjected to 50 mM EMS and the percentage of cell death, the percentage of intracellular K^+ (a metabolic parameter as discussed above), the depletion of ATP and the effect on lipid peroxidation were monitored.

male Sprague-Dawley rats = test: CCl4 induced lethality in rats; assay type: in vivo, rat; settings: for Survival after CCl4 treatment: 100 mg/kg ip 24 h prior, […] CCl4 oral; for Days Survived after CCl4: 24 and 1 hour prior
Protocol: The in vivo effect of alpha-TS was tested by administering a lethal oral dose of carbon tetrachloride (CC14) to male Sprague-Dawley rats.
In the experiment described in Table 3, a single dose of alpha-TS dissolved in peanut oil:ethanol (3:2) was given to male Sprague-Dawley rats. The dose was given 24 hours prior to an orally administered CCl4 challenge dissolved in peanut oil. Two to nine animals were tested per treatment. The control group comprised rats pretreated with the vehicle only. Survival was monitored for at least 7 days after the toxic insult.
In vivo experiments were performed to determine if the time the ionizable tocopherol analog (alpha-TS) is administered affects the cytoprotective functions. Male Sprague-Dawley rats were given a 100 mg/kg intraperitoneal dose of a tocopherol or succinate analog and were given a lethal dose of CCl4 (2.9g/kg by oral gavage). Table 7 contrasts the times of administration of the tocopherol or succinate analog and the times of administration of the lethal dose of CCl4 with the survival of the rats in the study (3to 6 rats per protective treatment).
Several tocopherol and succinate analogs were tested for CCl4 induced lethality. A single dose of the tocopherol or succinate analog was administered twenty four hours prior to orally administering 2.9 g CCl4 /kg body weight. Three to six animals were analyzed per treatment. The rats were monitored for seven days. […]

liver = test: CCl4 induced hepatotoxicity in rats (serum AST/ALT); assay type: in vivo, rat
Protocol: In vivo experiments were performed to determine if alpha-TS administration protects the liver from chemical toxicity. The liver is the target organ for CCl4. CCl4 is a hepatotoxic agent that induces centrilobular liver necrosis through its metabolism to free radicals. Male Sprague-Dawley rats were given an intraperitoneal dose (100 mg/kg) of a tocopherol analog 24 hours prior to a CCl4 challenge (2.9g/kg given by oral garage). Forty eight hours after the challenge, the rats were sacrificed and the levels of aspartate aminotransferase (AST) and alanine aminotransferase (ALT) were measured.
As discussed above, SGOT levels provide a clinical assessment of hepatotoxicity (liver damage).
Succinate analogs were administered to male Sprague-Dawley rats 20 hours prior to a 1 g CCl4 /kg body weight oral challenge and the AST and ALT serum enzyme levels were measured 48 hours after the challenge.
Similar to the experiments were described above, the ionizable congeners were administered to Sprague-Dawley rats by i.p. injection of a 100 mg ionizable congener/kg body weight dose 20 hours prior to oral administration of a 1 g/kg dose of CCl4, and the AST and ALT levels were measured 48 hours after the CCl4 challenge.

rat hepatocytes [2] = test: EMS-induced lipid peroxidation in rat hepatocyte suspensions; assay type: cell-based; settings: 50 mM EMS, 5 Hrs; concentrations as cell death (Table 15)
Protocol: as §1, §2

[3] = Tissue distribution of alpha-tocopherol and alpha-tocopherol ester in rats; assay type: in vivo, rat; settings: K+ salt in saline, 1 dose 100 mg/kg, 24 h
Protocol: 100 mg/kg body weight of a tocopherol analog was administered to Sprague-Dawley rats using a peanut oil:ethanol vehicle (3:2). Twenty four hours later the rats were sacrificed and the accumulation of the tocopherol analog in the liver was determined.
A similar in vivo experiment to that discussed in conjunction with Table 5 was performed to determine if other tissues accumulate alpha-TS. Male Sprague-Dawley rats were given a 100 mg/kg dose of alpha-TS using a variety of chemical forms and vehicles. A variety of techniques were used to administer the alpha-TS. Twenty four hours later the rats were sacrificed and the tissues were tested for alpha-TS accumulation.

[4] = read-out: Percent Cytoprotection, 25 μM, 50 mM EMS, 5 h
[5] = 100 mg/kg, single dose 24 h prior, CCl4 […]
[6] = 100 mg/kg ip, 48 h after 1 g/kg CCl4 (Table 31)
[7] = 1 g/kg, single dose 24 h prior, CCl4 […]

Cc1c(C)c2c(c(C)c1OC(=O)CC(C)C(=O)O)CC[C@@](C)(CCC[C@H](C)CCC[C@H](C)CCCC(C)C)O2 (stereo partly drawn) [Alpha-Tocopherol 3-Methyl Succinate, alpha-tocopheryl 3-methyl succinate]
inhibition at 25 µM (rat hepatocytes [1]; [4]): 70 ± 9% | Survival after CCl4 treatment (male Sprague-Dawley rats): No | Days Survived After CCl4 Treatment (male Sprague-Dawley rats; [5]): 2 days

Cc1c(C)c2c(c(C)c1OC(=O)CCCC(=O)O)CCC(C)(CCCC(C)CCCC(C)CCCC(C)C)O2 (stereo not drawn) [Alpha-Tocopherol Glutarate, alpha-tocopherol monoglutarate]
inhibition at 25 µM (rat hepatocytes [1]; [4]): 55 ± 15% | Survival after CCl4 treatment (male Sprague-Dawley rats): No | Days Survived After CCl4 Treatment (male Sprague-Dawley rats; [5]): 2 days

Cc1c(C)c2c(c(C)c1OC(=O)CCC(N)=O)CC[C@@](C)(CCC[C@H](C)CCC[C@H](C)CCCC(C)C)O2 [Alpha-Tocopherol Succinamide]
inhibition at 25 µM (rat hepatocytes [1]; [4]): 0%

CC(C)CCC[C@@H](C)[C@H]1CC[C@H]2[C@@H]3CC=C4C[C@@H](O)CC[C@]4(C)[C@H]3CC[C@]12C [Cholesterol, reference compound]
inhibition at 25 µM (rat hepatocytes [1]; [4]): 30 ± 16% | ALT (liver; [6]): 1.16 ± 0.41 10^3 units/L | AST (liver; [6]): 3.03 ± 0.84 10^3 units/L | SGOT Levels (liver; 100 mg/kg ip, 48 h after 1.0 g/kg CCl4): 4.08 ± 2.45 10^3 units/L | protection against CCl4 hepatotoxicity (in words) (liver; rats, serum enzyme levels): provided no protection | Survival after CCl4 treatment (male Sprague-Dawley rats): No | Days Survived After CCl4 Treatment (male Sprague-Dawley rats; [5]): 2 days

Cc1cc(OC(=O)CCC(=O)O)cc2c1OC(C)(CCCC(C)CCCC(C)CCCC(C)C)CC2 (centres unmarked) [Delta-Tocopherol Succinate, Delta-tocopherol mono succinate]
inhibition at 25 µM (rat hepatocytes [1]; [4]): 70 ± 24%

Cc1cc(O)cc2c1OC(C)(CCCC(C)CCCC(C)CCCC(C)C)CC2 (centres unmarked) [Delta-Tocopherol, reference compound]
inhibition at 25 µM (rat hepatocytes [1]; read-out: Percent Cytoprotection): 0%

COC(=O)CCC(=O)OC [Dimethyl Succinate, reference compound]
Cell Death (rat hepatocytes [1]; 50 mM EMS): 60 ± 1% | Lipid Peroxidation (rat hepatocytes [2]): 12.6 ± 0.2 nmolMDA/10^6 cells | Days Survived after CCl4 (male Sprague-Dawley rats; 1 g/kg): 2 days | Days Survived After CCl4 Treatment (male Sprague-Dawley rats; [7]): 2 days | cytoprotection (Table 7, in words) (male Sprague-Dawley rats; rat, in vivo): not cytoprotective

Cc1c(C)c2c(c(C)c1OC(=O)CCC(=O)O)CC[C@@](C)(CCC[C@H](C)CCC[C@H](C)CCCC(C)C)O2 [K + salt of Alpha-TS, Alpha-Tocopherol Succinate, K^+ Salt]
alpha-TS, Blood ([3]; (c) ip): 19 nmoles/gm of Tissue | alpha-TS, Heart ([3]; (c) ip): 18 nmoles/gm of Tissue | alpha-TS, Kidney ([3]; (c) ip): 15 nmoles/gm of Tissue | alpha-TS, Liver ([3]; (c) ip): 518 nmoles/gm of Tissue | alpha-TS, Lung ([3]; (c) ip): 60 nmoles/gm of Tissue | alpha-TS, Plasma ([3]; (c) ip): 24 nmoles/gm of Tissue | alpha-TS, Blood ([3]; (d) iv): 18 nmoles/gm of Tissue | alpha-TS, Heart ([3]; (d) iv): 24 nmoles/gm of Tissue | alpha-TS, Kidney ([3]; (d) iv): 27 nmoles/gm of Tissue | alpha-TS, Liver ([3]; (d) iv): 445 nmoles/gm of Tissue | alpha-TS, Lung ([3]; (d) iv): 385 nmoles/gm of Tissue | alpha-TS, Plasma ([3]; (d) iv): 30 nmoles/gm of Tissue | Percent Cytoprotection (rat hepatocytes [1]; 25 μM, 50 mM EMS, K^+ Salt, 300 min, 25 µM): 97 ± 3% | Days Survived After CCl4 Treatment (male Sprague-Dawley rats; [5]): > 7 days

COC(=O)CCC(=O)O [Monomethyl Succinate, reference compound]
Cell Death (rat hepatocytes [1]; 50 mM EMS): 61 ± 5% | Lipid Peroxidation (rat hepatocytes [2]): 12.8 ± 1.0 nmolMDA/10^6 cells | Days Survived after CCl4 (male Sprague-Dawley rats; 1 g/kg): 2 days | Days Survived After CCl4 Treatment (male Sprague-Dawley rats; [7]): 2 days

d-alpha-tocopheryl polyethylene glycol 1,000 succinate
Percent Cytoprotection (rat hepatocytes [1]; 25 μM, 50 mM EMS): 80 ± 15% | protection from lethal effects of EMS (rat hepatocytes [1]; rat hepatocytes, 25 μM, 50 mM EMS): protection was observed against EMS-induced toxicity | Days Survived After CCl4 Treatment (male Sprague-Dawley rats; 200 mg/Kg, iv, 24 h prior): > 7 days | Days Survived After CCl4 Treatment (male Sprague-Dawley rats; 200 mg/kg, oral, 24 h prior): 2 days | Days Survived After CCl4 Treatment (male Sprague-Dawley rats; 100 or 200 mg/Kg, single dose 24 h prior): > 7 days

Reference: patent US5336485A, “Method for protecting animals against tacrine induced cytotoxic injury using sterol compounds” (priority 1993, dated 1994)
